From the supplement of paper PMC11451515

Key:
Details in all cases: 48 h
[1] = test system: NOMO1; assay: AUC of viability dose-response curve (% viability x log10 dose units); higher = less sensitive
Method in brief: (§1)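 Library compounds in DMSO were applied for 48 h at 37°C at 11 threefold doses (47 μM to 0.79 nM) to medium-adapted leukemia cells in 1536-well plates holding 500 or 1000 cells/well. Luminescence from CellTiter-Glo One was normalised plate by plate against DMSO and cell-free wells. Area under the curve came from trapezoidal integration of a log-logistic fit, after scaling curves that rose above full viability and discarding those that failed quality control. The fit had four parameters and used log10 doses.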

[2] = test system: P12-Ichikawa; assay: as above
Method in brief: as §1

[3] = test system: SEM cells; assay: as above
Method in brief: as §1

[4] = test system: NOMO1; assay: cell viability relative to DMSO control; higher = less cytotoxic
Method in brief: (§2)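 NOMO1 or SEM cells were plated at 500 cells/well and P12-Ichikawa cells at 1000 cells/well in 1536-well plates (5 μl), after each leukemia line had been adapted for at least four passages in each medium. Pin dosing delivered library compounds in DMSO at 11 threefold concentrations, 47 μM to 0.79 nM. CellTiter-Glo One luminescence was read after 48 h at 37°C. Viability is reported as a per-plate percentage of DMSO wells, with cell-free wells as background.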

[5] = test system: P12-Ichikawa; assay: as above
Method in brief: as §2

[6] = test system: SEM cells; assay: as above
Method in brief: as §2

CC(C)(CO)[C@@H](O)C(=O)NCCC(=O)O
AUC of viability dose-response curve
Details	[1]	[2]	[3]
HPLM + 10% dialyzed FBS	440	466	469
RPMI 5 mM glucose + 10% FBS	470	471	471
RPMI 5 mM glucose + 10% dialyzed FBS	461	463	465

CC(C)OC(=O)/C1=C/N(CC(C)(C)C2=C1[NH]C3=CC=CC=C23)C(=O)C4=CC=C(F)C(=C4)F
AUC of viability dose-response curve
Details	HPLM + 10% dialyzed FBS	RPMI 5 mM glucose + 10% FBS	RPMI 5 mM glucose + 10% dialyzed FBS
[1]	424	384	351
[3]	342	364	394

cell viability [%]
Details	[4]	[5]	[6]
HPLM + 10% dialyzed FBS, 0.000781 µM	86.3	83.2	71.9
HPLM + 10% dialyzed FBS, 0.00234 µM	80.4	84.5	76
HPLM + 10% dialyzed FBS, 0.00702 µM	86	82.2	75.3
HPLM + 10% dialyzed FBS, 0.0211 µM	91.8	89.6	73.4
HPLM + 10% dialyzed FBS, 0.0632 µM	81.3	89.4	81
HPLM + 10% dialyzed FBS, 0.19 µM	89.8	83.4	68.9
HPLM + 10% dialyzed FBS, 0.569 µM	98.3	86.4	62
HPLM + 10% dialyzed FBS, 1.71 µM	98	83.9	72.9
HPLM + 10% dialyzed FBS, 5.12 µM	89.9	87.8	78.9
HPLM + 10% dialyzed FBS, 15.4 µM	85.6	91.6	59.6
HPLM + 10% dialyzed FBS, 46.1 µM	91.2	95.7	67.1
RPMI 5 mM glucose + 10% FBS, 0.000781 µM	72.7	79	76.8
RPMI 5 mM glucose + 10% FBS, 0.00234 µM	78.4	78.7	83.5
RPMI 5 mM glucose + 10% FBS, 0.00702 µM	79.7	79	88.2
RPMI 5 mM glucose + 10% FBS, 0.0211 µM	80.8	79	80.2
RPMI 5 mM glucose + 10% FBS, 0.0632 µM	89	83.4	79.8
RPMI 5 mM glucose + 10% FBS, 0.19 µM	79.4	83.9	67.7
RPMI 5 mM glucose + 10% FBS, 0.569 µM	84.3	84.9	71.1
RPMI 5 mM glucose + 10% FBS, 1.71 µM	76.4	82.9	71.8
RPMI 5 mM glucose + 10% FBS, 5.12 µM	82.7	87.2	79.6
RPMI 5 mM glucose + 10% FBS, 15.4 µM	78.2	84.1	61.8
RPMI 5 mM glucose + 10% FBS, 46.1 µM	83.5	83.8	78.6
RPMI 5 mM glucose + 10% dialyzed FBS, 0.000781 µM	74.5	75.3	72.9
RPMI 5 mM glucose + 10% dialyzed FBS, 0.00234 µM	74.8	77.3	82
RPMI 5 mM glucose + 10% dialyzed FBS, 0.00702 µM	70.6	78.1	80
RPMI 5 mM glucose + 10% dialyzed FBS, 0.0211 µM	70.8	85.2	86
RPMI 5 mM glucose + 10% dialyzed FBS, 0.0632 µM	69.4	78.5	94.9
RPMI 5 mM glucose + 10% dialyzed FBS, 0.19 µM	70.6	80.7	89
RPMI 5 mM glucose + 10% dialyzed FBS, 0.569 µM	66.6	75.9	71.5
RPMI 5 mM glucose + 10% dialyzed FBS, 1.71 µM	82	75.7	87.4
RPMI 5 mM glucose + 10% dialyzed FBS, 5.12 µM	80.5	78.4	106
RPMI 5 mM glucose + 10% dialyzed FBS, 15.4 µM	79.1	73.7	65.5
RPMI 5 mM glucose + 10% dialyzed FBS, 46.1 µM	72.5	82.4	73.1
